How the values were obtained:
[1] = clinical; settings: human, in vivo; for AUC(0-inf): AUC0→∞
[2] = tested on: patients with refractory solid tumors; experiment: Phase I dose escalation of RO4929097 with capecitabine: toxicity / DLT; format: in vivo
[3] = tested on: multiple animal models; settings: oral dosing; cited from earlier work
[4] = tested on: refractory solid tumors; experiment: Antitumor activity by RECIST 1.1; format: in vivo, human; settings: 30 patients, all dose levels, with capecitabine
[5] = n=30, worst grade, at least possibly related, with capecitabine

CC(C)(C(=O)NCC(F)(F)C(F)(F)F)C(=O)N[C@@H]1C(=O)Nc2ccccc2-c2ccccc21 [RO4929097]
Cmax ([1]; 20 mg): 358.3 ng/mL
Half Life ([1]; 20 mg): 30.7 h
Cmax ([1]; 20 mg, Cmax): 646 ng/mL
half-life ([1]; 20 mg): 36.2 h
AUC0→∞ ([1]; 30 mg): 16609.4 ng·h/mL
Cmax ([1]; 30 mg): 668.5 ng/mL
Vd ([1]; 30 mg): 88.7 L/h
AUC(0-inf) ([1]; 30 mg): 25900 ng·h/mL
Cmax ([1]; 30 mg, Cmax): 656 ng/mL
Vd ([1]; 30 mg, Vd): 53 L
Half Life ([1]; 45 mg): 9.5 h
Vd ([1]; 45 mg): 118.9 L/h
half-life ([1]; 45 mg): 17.8 h
Vd ([1]; 45 mg, Vd): 63.3 L
AUC0→∞ ([1]; 68 mg): 18050.7 ng·h/mL
Cmax ([1]; 68 mg): 1011.7 ng/mL
Half Life ([1]; 68 mg): 16.0 h
AUC(0-inf) ([1]; 68 mg): 34400 ng·h/mL
Cmax ([1]; 68 mg, Cmax): 1640 ng/mL
half-life ([1]; 68 mg): 15.9 h
AUC0→∞ ([1]; 100 mg): 32748.6 ng·h/mL
Cl ([1]; 100 mg): 3953.9 mL/h
Cmax ([1]; 100 mg): 1473.2 ng/mL
Half Life ([1]; 100 mg): 19.8 h
AUC(0-inf) ([1]; 100 mg): 51900 ng·h/mL
clearance ([1]; 100 mg, Cl): 43.3 mL/min
Cmax ([1]; 100 mg, Cmax): 2390 ng/mL
half-life ([1]; 100 mg): 13.4 h
Vd ([1]; 150 mg): 168.2 L/h
Vd ([1]; 150 mg, Vd): 154 L
Anemia, Grade 1 ([2]; human, in vivo): 0 n (%)
Anemia, Grade 2 ([2]; human, in vivo): 2 (7) n (%)
Anemia, Grade 3 ([2]; human, in vivo): 1 (3) n (%)
Anemia, Grade 4 ([2]; human, in vivo): 0 n (%)
Anemia, Overall ([2]; human, in vivo): 3 (10) n (%)
Anorexia, Grade 1 ([2]; human, in vivo): 5 (17) n (%)
Anorexia, Grade 2 ([2]; human, in vivo): 2 (7) n (%)
Anorexia, Grade 3 ([2]; human, in vivo): 0 n (%)
Anorexia, Grade 4 ([2]; human, in vivo): 0 n (%)
Anorexia, Overall ([2]; human, in vivo): 7 (23) n (%)
Chills, Grade 1 ([2]; human, in vivo): 3 (10) n (%)
Chills, Grade 2 ([2]; human, in vivo): 0 n (%)
Chills, Grade 3 ([2]; human, in vivo): 0 n (%)
Chills, Grade 4 ([2]; human, in vivo): 0 n (%)
Chills, Overall ([2]; human, in vivo): 3 (10) n (%)
Diarrhea, Grade 1 ([2]; human, in vivo): 9 (30) n (%)
Diarrhea, Grade 2 ([2]; human, in vivo): 4 (13) n (%)
Diarrhea, Grade 3 ([2]; human, in vivo): 1 (3) n (%)
Diarrhea, Grade 4 ([2]; human, in vivo): 0 n (%)
Diarrhea, Overall ([2]; human, in vivo): 14 (47) n (%)
Dry skin, Grade 1 ([2]; human, in vivo): 5 (17) n (%)
Dry skin, Grade 2 ([2]; human, in vivo): 0 n (%)
Dry skin, Grade 3 ([2]; human, in vivo): 0 n (%)
Dry skin, Grade 4 ([2]; human, in vivo): 0 n (%)
Dry skin, Overall ([2]; human, in vivo): 5 (17) n (%)
Fatigue, Grade 1 ([2]; human, in vivo): 6 (20) n (%)
Fatigue, Grade 2 ([2]; human, in vivo): 8 (27) n (%)
Fatigue, Grade 3 ([2]; human, in vivo): 2 (7) n (%)
Fatigue, Grade 4 ([2]; human, in vivo): 0 n (%)
Fatigue, Overall ([2]; human, in vivo): 16 (53) n (%)
Headache, Grade 1 ([2]; human, in vivo): 9 (30) n (%)
Headache, Grade 2 ([2]; human, in vivo): 0 n (%)
Headache, Grade 3 ([2]; human, in vivo): 0 n (%)
Headache, Grade 4 ([2]; human, in vivo): 0 n (%)
Headache, Overall ([2]; human, in vivo): 9 (30) n (%)
Hypokalemia, Grade 1 ([2]; human, in vivo): 1 (3) n (%)
Hypokalemia, Grade 2 ([2]; human, in vivo): 1 (3) n (%)
Hypokalemia, Grade 3 ([2]; human, in vivo): 2 (7) n (%)
Hypokalemia, Grade 4 ([2]; human, in vivo): 0 n (%)
Hypokalemia, Overall ([2]; human, in vivo): 4 (13) n (%)
Hypophosphatemia, Grade 1 ([2]; human, in vivo): 0 n (%)
Hypophosphatemia, Grade 2 ([2]; human, in vivo): 8 (27) n (%)
Hypophosphatemia, Grade 3 ([2]; human, in vivo): 6 (20) n (%)
Hypophosphatemia, Grade 4 ([2]; human, in vivo): 0 n (%)
Hypophosphatemia, Overall ([2]; human, in vivo): 14 (47) n (%)
Nausea, Grade 1 ([2]; human, in vivo): 17 (57) n (%)
Nausea, Grade 2 ([2]; human, in vivo): 2 (7) n (%)
Nausea, Grade 3 ([2]; human, in vivo): 2 (7) n (%)
Nausea, Grade 4 ([2]; human, in vivo): 0 n (%)
Nausea, Overall ([2]; human, in vivo): 21 (70) n (%)
Pain in legs, Grade 1 ([2]; human, in vivo): 4 (13) n (%)
Pain in legs, Grade 2 ([2]; human, in vivo): 0 n (%)
Pain in legs, Grade 3 ([2]; human, in vivo): 0 n (%)
Pain in legs, Grade 4 ([2]; human, in vivo): 0 n (%)
Pain in legs, Overall ([2]; human, in vivo): 4 (13) n (%)
Palmar-plantar erythrodysesthesia syndrome, Grade 1 ([2]; human, in vivo): 3 (10) n (%)
Palmar-plantar erythrodysesthesia syndrome, Grade 2 ([2]; human, in vivo): 1 (3) n (%)
Palmar-plantar erythrodysesthesia syndrome, Grade 3 ([2]; human, in vivo): 1 (3) n (%)
Palmar-plantar erythrodysesthesia syndrome, Grade 4 ([2]; human, in vivo): 0 n (%)
Palmar-plantar erythrodysesthesia syndrome, Overall ([2]; human, in vivo): 5 (17) n (%)
QTc prolongation, Grade 1 ([2]; human, in vivo): 5 (17) n (%)
QTc prolongation, Grade 2 ([2]; human, in vivo): 1 (3) n (%)
QTc prolongation, Grade 3 ([2]; human, in vivo): 0 n (%)
QTc prolongation, Grade 4 ([2]; human, in vivo): 0 n (%)
QTc prolongation, Overall ([2]; human, in vivo): 6 (20) n (%)
Taste alteration, Grade 1 ([2]; human, in vivo): 5 (17) n (%)
Taste alteration, Grade 2 ([2]; human, in vivo): 0 n (%)
Taste alteration, Grade 3 ([2]; human, in vivo): 0 n (%)
Taste alteration, Grade 4 ([2]; human, in vivo): 0 n (%)
Taste alteration, Overall ([2]; human, in vivo): 5 (17) n (%)
Vomiting, Grade 1 ([2]; human, in vivo): 11 (37) n (%)
Vomiting, Grade 2 ([2]; human, in vivo): 1 (3) n (%)
Vomiting, Grade 3 ([2]; human, in vivo): 2 (7) n (%)
Vomiting, Grade 4 ([2]; human, in vivo): 0 n (%)
Vomiting, Overall ([2]; human, in vivo): 14 (47) n (%)
Weight loss, Grade 1 ([2]; human, in vivo): 3 (10) n (%)
Weight loss, Grade 2 ([2]; human, in vivo): 1 (3) n (%)
Weight loss, Grade 3 ([2]; human, in vivo): 0 n (%)
Weight loss, Grade 4 ([2]; human, in vivo): 0 n (%)
Weight loss, Overall ([2]; human, in vivo): 4 (13) n (%)
diarrhea, patients ([2]; human, in vivo): 47%
fatigue, patients ([2]; human, in vivo): 53%
hypophosphatemia, patients ([2]; human, in vivo): 47%
nausea, patients ([2]; human, in vivo): 70%
vomiting, patients ([2]; human, in vivo): 47%
Anemia, Grade 5 [2, 5]: 0 n (%)
Anorexia, Grade 5 [2, 5]: 0 n (%)
Chills, Grade 5 [2, 5]: 0 n (%)
Diarrhea, Grade 5 [2, 5]: 0 n (%)
Dry skin, Grade 5 [2, 5]: 0 n (%)
Fatigue, Grade 5 [2, 5]: 0 n (%)
Headache, Grade 5 [2, 5]: 0 n (%)
Hypokalemia, Grade 5 [2, 5]: 0 n (%)
Hypophosphatemia, Grade 5 [2, 5]: 0 n (%)
Nausea, Grade 5 [2, 5]: 0 n (%)
Pain in legs, Grade 5 [2, 5]: 0 n (%)
Palmar-plantar erythrodysesthesia syndrome, Grade 5 [2, 5]: 0 n (%)
QTc prolongation, Grade 5 [2, 5]: 0 n (%)
Taste alteration, Grade 5 [2, 5]: 0 n (%)
Vomiting, Grade 5 [2, 5]: 0 n (%)
Weight loss, Grade 5 [2, 5]: 0 n (%)
efficacy maintained post-dosing [3]: up to 90 days
progressive disease as best response, patients [4]: 60%
stable disease as best response, patients ([4]; after three or more cycles): 30%
